Values quoted from earlier work as cited in Sander's compilation of Henry's law constants (doi:10.1002/etc.5620190905).

Experiment: Henry solubility constant Hcp at 298.15 K (mol/(m3 Pa))
Settings: reference: Armbrust (2000); cited value

SMILES	Henry solubility constant Hcp
N#Cc1c(Cl)c(Cl)c(Cl)c(C#N)c1Cl [2,4,5,6-tetrachloro-1,3-dicyanobenzene]	45
O=C(O)COc1ccc(Cl)cc1Cl [(2,4-dichlorophenoxy)-ethanoic acid]	5.5e+06
CCN(CC)C(=O)SCc1ccc(Cl)cc1 [S-(4-chlorobenzyl) diethylthiocarbamate]	37
O=C(O)COc1nc(Cl)c(Cl)cc1Cl [[(3,5,6-trichloro-2-pyridinyl)oxy]-acetic acid]	12000
COC(=O)c1ccccc1CS(=O)(=O)NC(=O)Nc1nc(OC)cc(OC)n1 [bensulfuron methyl]	7e+10
CCOP(=S)(OCC)Oc1nc(Cl)c(Cl)cc1Cl [chlorpyrifos]	1.4
COc1nc(C)nc(NC(=O)NS(=O)(=O)c2ccccc2Cl)n1 [chlorsulfuron]	150000
COc1c(Cl)ccc(Cl)c1C(=O)O [dicamba]	22000
O=[N+]([O-])/N=C1\NCCN1Cc1ccc(Cl)nc1 [imidacloprid]	4.9e+09
CC(C)Oc1cc(-n2nc(C(C)(C)C)oc2=O)c(Cl)cc1Cl [oxadiazon]	140
COC(=O)c1ccccc1S(=O)(=O)NC(=O)Nc1nc(C)cc(C)n1 [sulfometuron methyl]	8.2e+12
